Reference: patent US20150299188A1, “HETEROCYCLIC COMPOUND” (priority 2012, published 2015)

System: FLAP (5-lipoxygenase activating protein)
Assay: In vitro binding test: displacement of [3H]-7-chloro-3-(5-((3-fluoropyridin-2-yl)methoxy)-2-methylphenyl)-3,4-dihydroquinazolin-2(1H)-one from Sf9 microsome fractions
Design: species or system human and mouse
Details: Sf9 microsome fractions expressing FLAP; 100% = radioligand binding with 10 μM sodium 3-(3-(tert-butylsulfanyl)-1-(4-chlorobenzyl)-5-isopropyl-1H-indol-2-yl)-2,2-dimethylpropanoate, 0% = DMSO; test compound concentration not given
Outline: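 Sf9 microsomes expressing human or mouse FLAP (2 μg/mL) preincubated with compound 10 min at room temperature, then 120 nM tritiated quinazolinone ligand added for 60 min; buffer 100 mM Tris-HCl pH 7.5 with NaCl, EDTA, DTT, glycerol, Tween20. Bound ligand filtered and counted by scintillation; 10 μM indole propanoate defines 100% inhibition, DMSO 0%.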

Row | inhibitory rate (%) | Structure (SMILES)
1 | 95 | Cc1ccc(OCc2c(F)cccc2F)cc1N1Cc2ncccc2NC1=O [Example 223, 3-(5-((2,6-difluorobenzyl)oxy)-2-methylphenyl)-3,4-dihydropyrido[3,2-d]pyrimidin-2(1H)-one]
2 | 87 | N#Cc1ccc(OCc2ncccc2F)cc1N1Cc2ccccc2NC1=O [Example 224, 4-((3-fluoropyridin-2-yl)methoxy)-2-(2-oxo-1,4-dihydroquinazolin-3(2H)-yl)benzonitrile]
3 | 100 | CCCCOC(=O)/C=C/c1ccc(OCc2ncccc2F)cc1N1Cc2ccccc2NC1=O [Example 225, butyl (2E)-3-(4-((3-fluoropyridin-2-yl)methoxy)-2-(2-oxo-1,4-dihydroquinazolin-3(2H)-yl)phenyl)acrylate]
4 | 52 | Cc1nc(COc2ccc(C)c(N3Cc4ccc(C(C)(C)O)cc4NC3=O)c2)cs1 [Example 226, 7-(2-hydroxypropan-2-yl)-3-(2-methyl-5-((2-methyl-1,3-thiazol-4-yl)methoxy)phenyl)-3,4-dihydroquinazolin-2(1H)-one]
5 | 90 | Cc1ccc(OCc2ncccc2F)cc1N1Cc2ccc(C(=O)N3CCCC(O)C3)cc2NC1=O (centres unmarked) [Example 227, 3-(5-((3-fluoropyridin-2-yl)methoxy)-2-methylphenyl)-7-((3-hydroxypiperidin-1-yl)carbonyl)-3,4-dihydroquinazolin-2(1H)-one]
6 | 95 | CCCCOC(=O)CCc1ccc(OCc2ncccc2F)cc1N1Cc2ccccc2NC1=O [Example 228, butyl 3-(4-((3-fluoropyridin-2-yl)methoxy)-2-(2-oxo-1,4-dihydroquinazolin-3(2H)-yl)phenyl)propanoate]
7 | 76 | O=C(O)CCc1ccc(OCc2ncccc2F)cc1N1Cc2ccccc2NC1=O [Example 229, 3-(4-((3-fluoropyridin-2-yl)methoxy)-2-(2-oxo-1,4-dihydroquinazolin-3(2H)-yl)phenyl)propanoic acid]
8 | 103 | O=C1Nc2ccccc2CN1c1cc(OCc2ncccc2F)ccc1Cl [Example 231, 3-(2-chloro-5-((3-fluoropyridin-2-yl)methoxy)phenyl)-3,4-dihydroquinazolin-2(1H)-one]
9 | 104 | COC(=O)c1ccc2c(c1)NC(=O)N(c1cc(OCc3ccccn3)ccc1C)C2 [Example 232, methyl 3-(2-methyl-5-(pyridin-2-ylmethoxy)phenyl)-2-oxo-1,2,3,4-tetrahydroquinazoline-7-carboxylate]
10 | 87 | CC(C)(O)c1ccc2c(c1)NC(=O)N(c1cc(OCc3c(F)cccc3F)ccc1F)C2 [Example 233, 3-(5-((2,6-difluorobenzyl)oxy)-2-fluorophenyl)-7-(2-hydroxypropan-2-yl)-3,4-dihydroquinazolin-2(1H)-one]
11 | 85 | O=C1Nc2cc(CO)ccc2CN1c1cc(OCc2c(F)cccc2F)ccc1F [Example 234, 3-(5-((2,6-difluorobenzyl)oxy)-2-fluorophenyl)-7-(hydroxymethyl)-3,4-dihydroquinazolin-2(1H)-one]
12 | 79 | Cc1ccc(OCc2c(F)cccc2F)cc1N1Cc2cnccc2NC1=O [Example 235, 3-(5-((2,6-difluorobenzyl)oxy)-2-methylphenyl)-3,4-dihydropyrido[4,3-d]pyrimidin-2(1H)-one]
13 | 65 | Cc1ccc(OCc2c(F)cccc2F)cc1N1Cc2nn(C)cc2NC1=O [Example 236, 6-(5-((2,6-difluorobenzyl)oxy)-2-methylphenyl)-2-methyl-2,4,6,7-tetrahydro-5H-pyrazolo[4,3-d]pyrimidin-5-one]
14 | 100 | COC(=O)c1ccc2c(c1)NC(=O)N(c1cc(OCc3nccs3)ccc1C)C2 [Example 237, methyl 3-(2-methyl-5-(1,3-thiazol-2-ylmethoxy)phenyl)-2-oxo-1,2,3,4-tetrahydroquinazoline-7-carboxylate]
15 | 84 | CC(C)(O)c1ccc2c(c1)NC(=O)N(c1cc(OCc3c(F)cccc3F)ccc1C(F)(F)F)C2 [Example 238, 3-(5-((2,6-difluorobenzyl)oxy)-2-(trifluoromethyl)phenyl)-7-(2-hydroxypropan-2-yl)-3,4-dihydroquinazolin-2(1H)-one]
16 | 86 | O=C1Nc2cc(CO)ccc2CN1c1cc(OCc2c(F)cccc2F)ccc1C(F)(F)F [Example 239, 3-(5-((2,6-difluorobenzyl)oxy)-2-(trifluoromethyl)phenyl)-7-(hydroxymethyl)-3,4-dihydroquinazolin-2(1H)-one]
17 | 76 | Cc1ccc(OCc2c(F)cccc2F)cc1N1Cc2ccncc2NC1=O [Example 240, 3-(5-((2,6-difluorobenzyl)oxy)-2-methylphenyl)-3,4-dihydropyrido[3,4-d]pyrimidin-2(1H)-one]
18 | 94 | COC(=O)c1ccc2c(c1)NC(=O)N(c1cc(OCc3ncc(C)s3)ccc1C)C2 [Example 241, methyl 3-(2-methyl-5-((5-methyl-1,3-thiazol-2-yl)methoxy)phenyl)-2-oxo-1,2,3,4-tetrahydroquinazoline-7-carboxylate]

Row | inhibitory rate (%) | Structure (SMILES)
19 | 102 | Cc1ccc(OCc2ncccc2F)cc1N1Cc2c(Cl)cccc2NC1=O [Example 242, 5-chloro-3-(5-((3-fluoropyridin-2-yl)methoxy)-2-methylphenyl)-3,4-dihydroquinazolin-2(1H)-one]
20 | 100 | Cc1ccc(OCc2ncccc2F)cc1N1Cc2cc(Cl)ccc2NC1=O [Example 243, 6-chloro-3-(5-((3-fluoropyridin-2-yl)methoxy)-2-methylphenyl)-3,4-dihydroquinazolin-2(1H)-one]
21 | 113 | Cc1ccc(OCc2ncccc2F)cc1N1Cc2ccc(Cl)cc2NC1=O [Example 244, 7-chloro-3-(5-((3-fluoropyridin-2-yl)methoxy)-2-methylphenyl)-3,4-dihydroquinazolin-2(1H)-one]
22 | 99 | CCCc1ccc(OCc2ncccc2F)cc1N1Cc2ccccc2NC1=O [Example 245, 3-(5-((3-fluoropyridin-2-yl)methoxy)-2-propylphenyl)-3,4-dihydroquinazolin-2(1H)-one]
23 | 109 | COC(=O)c1ccc2c(c1)NC(=O)N(c1cc(OCc3nccc(Cl)c3F)ccc1C)C2 [Example 246, methyl 3-(5-((4-chloro-3-fluoropyridin-2-yl)methoxy)-2-methylphenyl)-2-oxo-1,2,3,4-tetrahydroquinazoline-7-carboxylate]
24 | 99 | Cc1ccc(OCc2ncc(F)cc2F)cc1N1Cc2ccccc2NC1=O [Example 247, 3-(5-((3,5-difluoropyridin-2-yl)methoxy)-2-methylphenyl)-3,4-dihydroquinazolin-2(1H)-one]
25 | 98 | CCOC(=O)CCCCc1ccc(OCc2ncccc2F)cc1N1Cc2ccccc2NC1=O [Example 248, ethyl 5-(4-((3-fluoropyridin-2-yl)methoxy)-2-(2-oxo-1,4-dihydroquinazolin-3(2H)-yl)phenyl)pentanoate]
26 | 90 | COC(=O)c1ccc2c(c1)NC(=O)N(c1cc(OCc3nc(C)cs3)ccc1C)C2 [Example 249, methyl 3-(2-methyl-5-((4-methyl-1,3-thiazol-2-yl)methoxy)phenyl)-2-oxo-1,2,3,4-tetrahydroquinazoline-7-carboxylate]
27 | 70 | Cc1ccc(OCc2ncccc2F)cc1N1Cc2nn(C)cc2NC1=O [Example 250, 6-(5-((3-fluoropyridin-2-yl)methoxy)-2-methylphenyl)-2-methyl-2,4,6,7-tetrahydro-5H-pyrazolo[4,3-d]pyrimidin-5-one]
28 | 68 | O=C(O)CCCCc1ccc(OCc2ncccc2F)cc1N1Cc2ccccc2NC1=O [Example 251, 5-(4-((3-fluoropyridin-2-yl)methoxy)-2-(2-oxo-1,4-dihydroquinazolin-3(2H)-yl)phenyl)pentanoic acid]
29 | 105 | Cc1ccc(S(=O)(=O)Oc2ccc3c(c2)NC(=O)N(c2cc(OCc4ncccc4F)ccc2C)C3)cc1 [Example 252, 3-(5-((3-fluoropyridin-2-yl)methoxy)-2-methylphenyl)-2-oxo-1,2,3,4-tetrahydroquinazolin-7-yl 4-methylbenzenesulfonate]
30 | 93 | Cc1ccc(OCc2ncccc2F)cc1N1Cc2cccc(Cl)c2NC1=O [Example 253, 8-chloro-3-(5-((3-fluoropyridin-2-yl)methoxy)-2-methylphenyl)-3,4-dihydroquinazolin-2(1H)-one]
31 | 98 | CC(C)(O)c1ccc2c(c1)NC(=O)N(c1cc(OCc3c(F)cccc3F)ccc1Cc1ccccc1)C2 [Example 254, 3-(2-benzyl-5-((2,6-difluorobenzyl)oxy)phenyl)-7-(2-hydroxypropan-2-yl)-3,4-dihydroquinazolin-2(1H)-one]
32 | 81 | O=C1Nc2cc(CO)ccc2CN1c1cc(OCc2c(F)cccc2F)ccc1Cc1ccccc1 [Example 255, 3-(2-benzyl-5-((2,6-difluorobenzyl)oxy)phenyl)-7-(hydroxymethyl)-3,4-dihydroquinazolin-2(1H)-one]
33 | 85 | Cc1ccc(OCc2ncccc2F)cc1N1Cc2cccnc2NC1=O [Example 256, 3-(5-((3-fluoropyridin-2-yl)methoxy)-2-methylphenyl)-3,4-dihydropyrido[2,3-d]pyrimidin-2(1H)-one]
34 | 97 | O=C1Nc2cc(CO)ccc2CN1c1cc(OCc2c(F)cccc2F)ccc1CCc1ccccc1 [Example 257, 3-(5-((2,6-difluorobenzyl)oxy)-2-(2-phenylethyl)phenyl)-7-(hydroxymethyl)-3,4-dihydroquinazolin-2(1H)-one]
35 | 116 | COc1ccc(CN2C(=O)N(c3cc(OCc4ncccc4F)ccc3Br)Cc3ccccc32)cc1 [Example 258, 3-(2-bromo-5-((3-fluoropyridin-2-yl)methoxy)phenyl)-1-(4-methoxybenzyl)-3,4-dihydroquinazolin-2(1H)-one]
